Experimental data from a melting point compilation (Tetko et al.).

Row | melting point [°C] | SMILES
1 | 39 to 41 | CC(O)Cc1cc(F)cc(Br)c1 (centres undefined)
2 | 162 to 164 | NC(=O)c1cccc(Oc2ccc(N)nc2)c1
3 | 177 to 179 | ON=Cc1ccc(Oc2ncccn2)cc1
4 | 103 to 105 | COc1ccc(CNC(=O)CCl)cc1
5 | 208 to 210 | Nc1ccc2nc(S)oc2c1
6 | 138 to 140 | Cc1cc(=O)[nH]cn1
7 | 113 to 115 | Cc1ccc(N)cc1-n1cnnn1
8 | 130 to 132 | Cc1cc(C)nc(SCC(=O)O)n1
9 | 71 to 73 | CC(C)c1ccc(CCC(=O)O)cc1
10 | 81 to 83 | COc1ccc(CNc2cnn(C)c2)c(OC)c1
11 | 169 to 171 | CC(=O)N1Cc2ccc(N)cc2C1
12 | 104 to 106 | NNC(=O)CC1CCS(=O)(=O)C1 (centres undefined)
13 | 209 to 211 | Cc1ccc2cc(C(=O)O)[nH]c2c1
14 | 167 to 169 | CN(C(=O)c1ccc(Br)o1)c1ccccc1C(=O)O
15 | 259 to 261 | O=C(O)c1ccc(-n2cccc2)nc1
16 | 120 to 122 | O=C(O)c1cc(S(=O)(=O)N2CCCCC2)ccc1N1CCCC1
17 | 99 to 101 | CC(C)(C(N)=S)c1ccccc1
18 | 71 to 73 | N#CCn1cc(N)cn1
19 | 230 to 232 | O=C(O)C(NCc1ccccc1)c1ccc(C(F)(F)F)cc1 (centres undefined)
20 | 213 to 215 | Cc1ccc(C)n1-c1ccc(C(=O)O)cc1

Row | melting point [°C] | SMILES
21 | 164 to 166 | COc1ccc2cc(-c3nn(-c4ccccc4)cc3C=O)ccc2c1
22 | 130 to 132 | CCC(=CC(=O)O)c1ccc(OC)cc1
23 | 217 to 219 | Cc1nc(S(=O)(=O)NCC(=O)O)cn1C
24 | 161 to 163 | Cc1noc(-c2ccc(N)c(C)c2)n1
25 | 185 to 189 | CC(C)(C)c1nnc(S)n1N
26 | 31 to 33 | CCOC(=O)c1ncon1
27 | 111 to 113 | CNC(C(N)=O)c1cccc(Br)c1 (centres undefined)
28 | 40 to 42 | CCOC(=O)COc1cccc(Br)c1
29 | 89 to 91 | N#CCC1(Sc2ccccc2N)CCCC1
30 | 162 to 166 | COc1cc(C=O)cc(Cl)c1O
31 | 209 to 211 | O=C(O)C1=Cc2cc(F)ccc2OC1
32 | 93 to 95 | CN1C(=CC=O)C(C)(C)c2ccccc21
33 | 144 to 146 | Cc1ccc(N2CCc3c(N)cccc3C2)nn1
34 | 121 to 123 | O=C(CCl)Nc1ccc(-c2ccccc2)cc1
35 | 237 to 239 | O=C(O)c1cnc(-c2ccco2)s1
36 | 118 to 120 | O=C(O)C1(O)CCSCC1
37 | 60 to 62 | Cc1nc2n(n1)CC(N)CC2 (centres undefined)
38 | 119 to 121 | COc1cccc(C2(C)NC(=O)NC2=O)c1 (centres undefined)
39 | 102 to 104 | CCNc1nc(C)c(C(=O)OCC)s1
40 | 200 to 202 | CCOC(=O)c1sc(-c2ccc(Cl)cc2)cc1N

Row | melting point [°C] | SMILES
41 | 116 to 118 | COc1cc(CC#N)cc(Br)c1OCC(F)(F)F
42 | 82 to 84 | O=C(CCl)NCCc1c[nH]c2ccccc12
43 | 222 to 224 | O=C(O)c1ccc(-c2cccc(Cl)c2)s1
44 | 292 to 295 | O=S(=O)(c1ccc(Cl)c(C(F)(F)F)c1)N1CCNCC1
45 | 123 to 125 | CC(C)(C)OC(=O)N1CCC2(CC1)CC2C(=O)O (centres undefined)
46 | 133 to 135 | CCc1oc(C(=O)O)cc1C
47 | 101 to 103 | CC(C)(C)NS(=O)(=O)Cc1cccc(N)c1
48 | 79 to 81 | N#Cc1ccnc(Oc2ccccc2Cl)c1
49 | 166 to 168 | NC(=O)Cc1ccc2c(c1)CCC2
50 | 207 to 209 | NNC(=O)c1cc(-c2ccccc2)n[nH]1
51 | 135 to 137 | CS(=O)(=O)Cc1cc(N)ccc1Cl
52 | 177 to 179 | O=S(=O)(Cl)c1c[nH]c2nccc(Br)c12
53 | 47 to 49 | CCCCOc1ccc(C(C)=O)cc1OC
54 | 121 to 123 | CC(=O)NCc1ccc(S(N)(=O)=O)s1
55 | 170 to 172 | NC(=O)NC(=O)C(Cl)c1ccccc1 (centres undefined)
56 | 62 to 64 | Cc1ccc(CNCCO)cc1
57 | 87 to 89 | O=c1c(Cl)c(Cl)cnn1Cc1ccccc1
58 | 160 to 162 | Cc1ccccc1-c1nnc(N)o1
59 | 113 to 115 | O=C1C=CC(=O)N1c1cccc(O)c1

Second part, the compound before the results:

Row | SMILES | melting point [°C]
60 | CN(C)S(=O)(=O)c1cccc(S(=O)(=O)Cl)c1 | 97 to 99
61 | N#CCc1cccc(C(N)=O)c1 | 157 to 159
62 | NS(=O)(=O)C1CCS(=O)(=O)C1 (centres undefined) | 144 to 146
63 | CCc1[nH]n(C)c(=N)c1-c1ccc2c(c1)OCO2 | 154 to 156
64 | Cc1nn(-c2ccccc2)c(C)c1CN | 77 to 79
65 | NCC(O)CN1CCOCC1 (centres undefined) | 36 to 40
66 | CC1(CCc2ccccc2)NC(=O)NC1=O (centres undefined) | 179 to 181
67 | O=S(=O)(Cl)c1cnn(-c2ccccc2F)c1 | 81 to 83
68 | ClCc1nc(-c2ccc(Br)s2)no1 | 42 to 44
69 | O=C(O)Cc1ccc(NC(=O)c2ccc(Br)cc2)cc1 | 269 to 271
70 | O=C(O)Cc1csc(-c2ccco2)n1 | 136 to 138
71 | CC(C)(C)OC(=O)NC(CC(=O)O)C1CC1 (centres undefined) | 111 to 113
72 | COc1cc(N)cc(Br)c1 | 39 to 41
73 | CC(C)(C)OC(=O)NCC1CNc2ccccc21 (centres undefined) | 80 to 82
74 | O=C(O)C=Cc1ccccc1OC(F)(F)F | 174 to 176
75 | O=C(O)c1cc(Cl)c([N+](=O)[O-])[nH]1 | 236 to 238
76 | Cn1nc(Br)c2c(Cl)ncnc21 | 115 to 117
77 | O=C(Nc1ccc(Br)cc1)c1cccnc1Cl | 150 to 152
78 | N#Cc1ccc2ncccc2c1 | 135 to 137
79 | CC(Cl)C(=O)c1ccc(Cl)cc1 (centres undefined) | 58 to 60
80 | Cc1nc(C)c(S(N)(=O)=O)s1 | 142 to 144
81 | Nc1nc2ccccc2n1C1CCCCC1 | 206 to 208

Row | SMILES | melting point [°C]
82 | CC(C)(C)OC(=O)Nc1cc2ccccc2cc1C(=O)O | 179 to 181
83 | Nc1ccc(-c2nc3ccc(N)cc3[nH]2)cc1 | 234 to 236
84 | CC(N)C(=O)Nc1ccc(-n2cncn2)cc1 (centres undefined) | 169 to 171
85 | Nc1ccn(CCN2CCNC2=O)n1 | 118 to 120
86 | CCNS(=O)(=O)c1ccccc1OC | 84 to 86
87 | CC1CC(C)CN(S(=O)(=O)c2ccc(NN)nc2)C1 (centres undefined) | 217 to 219
88 | O=C(O)c1cc(S(=O)(=O)N2CCCCC2)ccc1N1CCCCC1 | 143 to 145
89 | CC(=O)c1ccc(-c2ccccc2)s1 | 115 to 117
90 | CC(=O)c1ccc(S(=O)(=O)N2CCCCC2C(=O)O)cc1 (centres undefined) | 132 to 134
91 | CCN1CCc2nc3ccccc3c(C(=O)O)c2C1 | 278 to 280
92 | CCC(Br)C(N)=O (centres undefined) | 108 to 110
93 | Nc1cccc(C(=O)Nc2ccncc2)c1 | 224 to 226
94 | O=C(O)C1(c2ccc(Br)cc2)CCOCC1 | 195 to 197
95 | COc1cc(C(C)=O)ccc1S | 58 to 60
96 | Sc1ncnc2ccsc12 | 271 to 273
97 | ClCc1nc(-c2ccccn2)no1 | 102 to 104
98 | CC1(O)C(=O)Nc2ccccc21 (centres undefined) | 156 to 158
99 | Cc1ccc(C(O)CN)cc1 (centres undefined) | 70 to 72
100 | CN(C)S(=O)(=O)c1ccc2c(c1)NCC2 | 121 to 123
101 | COCC1(C)CNC(=O)C1 (centres undefined) | 62 to 64
102 | O=C(O)c1cc([N+](=O)[O-])c(F)cc1I | 158 to 160
103 | Cn1cc(C=O)c(-c2cc3ccccc3o2)n1 | 151 to 153

Row | SMILES | melting point [°C]
104 | CC(=O)Nc1ccc(OCC2CO2)cc1 (centres undefined) | 117 to 119
105 | Nc1nnc(-c2cc(F)cc(Br)c2)s1 | 192 to 194
106 | O=C(O)CSCc1nc2scc(-c3cccs3)c2c(=O)[nH]1 | 148 to 150
107 | NC(=O)c1ccc(N)cn1 | 169 to 171
108 | O=C(O)c1cc(C2CC2)[nH]n1 | 193 to 195
109 | O=C(O)CCC(=O)Nc1sc2c(c1C(=O)NCC1CCCO1)CCCC2 (centres undefined) | 151 to 153
110 | CCCCS(=O)(=O)Nc1ccc(F)c(N)c1 | 71 to 73
111 | NCc1cccc(S(=O)(=O)NCc2cccc(F)c2)c1 | 101 to 103
112 | O=C(CCCl)Nc1ccc(N2CCCC2=O)cc1 | 194 to 196
113 | BrCc1ccc2c(c1)COC2 | 49 to 51
114 | O=C(O)c1cccc(N2C(=O)CCC2=O)c1 | 237 to 239
115 | CCOc1ccc(C(=O)O)cc1[N+](=O)[O-] | 201 to 203
116 | O=c1ccccn1CCO | 88 to 90
117 | Cc1nc(S)c(C#N)cc1C(=O)Nc1ccccc1 | 201 to 203
118 | Cc1cc(O)ccc1C(C)C | 111 to 114
119 | O=C(O)CSC1=NS(=O)(=O)c2ccccc21 | 213 to 215
120 | OCc1cnc(-c2ccccc2)s1 | 72 to 74
121 | CCc1ccc(-c2csc(N)n2)cc1 | 120 to 122
122 | CCCS(=O)(=O)Nc1cccc(N)c1C | 99 to 101
123 | Cc1cccc(C(=O)Nc2ccc(O)cc2)c1 | 158 to 160
124 | NCCS(=O)(=O)N1CCSCC1 | 59 to 61
125 | O=C(O)Cc1ccc(S(=O)(=O)CCO)cc1 | 99 to 101

Row | SMILES | melting point [°C]
126 | Cc1cc(C)c(C(=O)O)[nH]1 | 109 to 111
127 | O=c1c(Cl)c(Cl)cnn1-c1ccc(S(=O)(=O)Cl)cc1 | 144 to 146
128 | O=C(O)c1cc2c(F)cc(Br)cc2[nH]1 | 230 to 232
129 | O=C(Nc1cccc(NC(=O)c2ccco2)c1)OCC(F)(F)F | 167 to 169
130 | COC(=O)c1cc(S(N)(=O)=O)ccc1O | 136 to 138
131 | CCN(CC)C(=O)c1ccc(NC(=O)CCl)cc1 | 115 to 117
132 | O=C(O)c1n[nH]c2ccccc2c1=O | 259 to 261
133 | NS(=O)(=O)c1ccc(S(=O)(=O)Cl)cc1 | 144 to 146
134 | O=C(O)c1ccc(Cl)c(S(=O)(=O)Nc2ccc(Br)cc2)c1 | 225 to 227
135 | Cn1cc(C(=O)NN)c2ccccc21 | 138 to 140
136 | CCOc1ccccc1-n1nnnc1S | 53 to 55
137 | Nc1cc(Cl)ccc1C(=O)N1CCCC1 | 118 to 120
138 | Cc1nc(Cl)c2c(CC(C)C)csc2n1 | 60 to 62
139 | O=C(O)c1cccc(OCc2ccc(Cl)cc2)c1 | 171 to 173
140 | Cc1cc(NC(=O)C(C)Cl)no1 (centres undefined) | 132 to 134
141 | O=C(O)c1ccc(O)cc1F | 202 to 204
142 | Fc1ccc(-c2csc3nc(Cc4ccc(Cl)cc4)nc(Cl)c23)cc1 | 148 to 150
143 | Cc1cc(=O)n2nc(N)[nH]c2n1 | 367 to 369
144 | O=C1Cc2ccccc2C(=O)N1 | 190 to 192
